ChEMBL document CHEMBL1143071, “Sodium pancratistatin 3,4-o-cyclic phosphate, a water-soluble synthetic derivative of pancratistatin, is highly effective in a human colon tumor model” (J Nat Prod, 2008)
Active and inactive are the calls of the source. No cut-off for these calls is given here.

Experiments:
DLD-1 [1] = assay: Antitumor activity in human DLD1 cell xenografted CD1 immunodeficient nude mouse at 100 mg/kg, iv assessed as weight loss; format: functional
DLD-1 [2] = assay: Antitumor activity in human DLD1 cells xenografted CD1 immunodeficient nude mouse at 100 mg/kg after 24 hrs assessed as increase in tumor necrosis; format: functional
DLD-1 [3] = assay: Cell cycle arrest in human DLD1 cells assessed as accumulation at G2/M phase at 25 uM; format: functional, cell-based
DLD-1 [4] = assay: Antitumor activity in human DLD1 cell xenografted CD1 immunodeficient nude mouse at 100 mg/kg, iv assessed as mean tumor doubling time; format: functional
HUVEC [5] = assay: (§1) Disruption of normal microtubule structure in HUVEC cells at 250 uM after 3 hrs; format: functional, cell-based; conditions: Homo sapiens
HUVEC [6] = assay: Disruption of normal microtubule structure in HUVEC cells at 250 uM after 1 hr; format: functional, cell-based; conditions: Homo sapiens
DLD-1 [7] = assay: Antitumor activity against human DLD1 cells after 96 hrs; format: functional, cell-based; conditions: DLD-1, 96 h
DLD-1 [8] = assay: Reduction in mitochondrial membrane potential in human DLD1 cells at 250 uM after 4 hrs assessed as decrease in fluorescence of mitoTracker green FM; format: functional, cell-based
DLD-1 [9] = assay: Antitumor activity in human DLD1 cells xenografted CD1 immunodeficient nude mouse at 100 mg/kg after 24 hrs assessed as decrease in functional vasculature; design: scale not given: the % may be the effect or the level left
DLD-1 [10] = assay: Reduction in mitochondrial membrane potential in human DLD1 cells at 250 uM after 24 hrs assessed as decrease in fluorescence of mitoTracker green FM; format: functional, cell-based
HUVEC [11] = assay: as §1; format: functional, cell-based; conditions: Homo sapiens; remark: listed apart in the source
DLD-1 [12] = assay: Reduction in mitochondrial membrane potential in human DLD1 cells at 250 uM after 7 hrs assessed as decrease in fluorescence of mitoTracker green FM; format: functional, cell-based
DLD-1 [13] = assay: Antitumor activity against human DLD1 cells after 1 hr by MTT assay; format: functional, cell-based; conditions: DLD-1, 1 h
DLD-1 [14] = assay: Antitumor activity in human DLD1 cell xenografted CD1 immunodeficient nude mouse assessed as mean tumor doubling time; format: functional
DLD-1 [15] = assay: Disruption of normal microtubule structure in human DLD1 cells at 440 nM; format: functional, cell-based
HUVEC [16] = assay: Disruption of normal microtubule structure in HUVEC cells at 440 nM; format: functional, cell-based; conditions: Homo sapiens
DLD-1 [17] = assay: Antitumor activity in human DLD1 cell xenografted CD1 immunodeficient nude mouse assessed as weight loss; format: functional
DLD-1 [18] = assay: Antitumor activity in human DLD1 cells xenografted CD1 immunodeficient nude mouse after 24 hrs assessed as increase in tumor necrosis; format: functional
DLD-1 [19] = assay: Antitumor activity in human DLD1 cells xenografted CD1 immunodeficient nude mouse after 24 hrs assessed as decrease in functional vasculature; design: scale not given: the % may be the effect or the level left

IC50 (DLD-1 [7])	IC50 (DLD-1 [13])	Structure (SMILES)	Activity (DLD-1 [1])	Activity (DLD-1 [2])	Activity (DLD-1 [3])	Activity (DLD-1 [4])	Activity (HUVEC [5])	Activity (HUVEC [6])	Activity (DLD-1 [8])	Activity (DLD-1 [9])	Activity (DLD-1 [10])	Activity (HUVEC [11])	Activity (DLD-1 [12])	Activity (DLD-1 [14])	Activity (DLD-1 [15])	Activity (HUVEC [16])	Activity (DLD-1 [17])	Activity (DLD-1 [18])	Activity (DLD-1 [19])
19.7 µM	253 µM	O=C1N[C@H]2[C@@H]3OP(=O)([O-])O[C@@H]3[C@@H](O)[C@H](O)[C@@H]2c2cc3c(c(O)c21)OCO3.[Na+]	8.8%	95.3%	inactive	15.1 days	inactive	inactive	Active	0.6%	Active	inactive	Active						
		CC(=O)O[C@H]1C(=O)[C@@]2(C)[C@H]([C@H](OC(=O)c3ccccc3)[C@]3(O)C[C@H](OC(=O)[C@H](O)[C@@H](NC(=O)c4ccccc4)c4ccccc4)C(C)=C1C3(C)C)[C@]1(OC(C)=O)CO[C@@H]1C[C@@H]2O [PACLITAXEL]												6.2 days	Active	Active	0.5%	8.1%	6.5%
